US7767850B2, “S-[2-[(1-iminoethy)amino]ethyl]-2-methyl-L-cysteine maleate hydrochloride crystalline salt” (Pfizer Inc., priority 2003, dated 2010)

Tests used:
[1] = Direct compression without excipients: tablet hardness and disintegration; type: physicochemical; conditions: for tablet hardness: 100-mg compacts, no excipients
Description: The powder was evaluated for direct compression without any excipients. Compacts of 100-mg in weight were manufactured using an 8/32 inch (6.35-mm) round concave tooling. Tablets were compressed at various compression forces and evaluated for strength, thickness and disintegration. […] Relatively strong small tablets ( 8/32 inch), as hard as 11-kP, are possible with compression force between 900 and 1000 kg. Tablet strength reaches an apparent maximum between 900 and 1000 kg compression force. Minor adhesion to the punch and die walls were observed during compression experiments. However, the sticking was considered to be a minor problem and could easily be resolved by using an appropriate lubricant. Tablet disintegration times were also evaluated for compacts of orderly packed agglomerates of S-[2-[(1-Iminoethyl)amino]ethyl]-2-methyl-L-cysteine maleate hydrochloride crystals. Three tablets were compressed with compression forces between 500 and 600, corresponding to 8 kP tablet hardness for this material.

[2] = Moisture sorption study by DVS moisture balance; type: physicochemical; conditions: 25° C., sample of Example 10
Description: FIG. 4 is a plot of a moisture sorption study of the crystalline S-[2-[(1-Iminoethyl)amino]ethyl]-2-methyl-L-cysteine maleate hydrochloride. […] Between 70 and 9% R.H., another 58% moisture was taken up by the solids. It is presumed that at 90% R.H. the crystal structure was destroyed to produce highly hygroscopic amorphous solids. During the de-sorption cycle (from 90 to 30% R.H.), these solids transformed into a mixture of form II of the crystalline S-[2-[(1-Iminoethyl)amino]ethyl]-2-methyl-L-cysteine maleate and amorphous zwitterion with excess hydrogen chloride. Subsequent de-sorption and re-sorption behavior was very similar to form II of the crystalline S-[2-[(1-Iminoethyl)amino]ethyl]-2-methyl-L-cysteine maleate. Powder x-ray analysis on the solids at the end of the experiment confirmed the presence of both form II the crystalline S-[2-[(1-Iminoethyl)amino]ethyl]-2-methyl-L-cysteine maleate and amorphous solids.

[3] = Particle size distribution by sieve analysis; type: physicochemical
Description: (§1) Orderly packed agglomerates of S-[2-[(1-Iminoethyl)amino]ethyl]-2-methyl-L-cysteine maleate hydrochloride crystals made in Example 20 were studied to determine its powder characteristics that are relevant to the development of a pharmaceutical composition with S-[2-[(1-Iminoethyl)amino]ethyl]-2-methyl-L-cysteine maleate hydrochloride together with a pharmaceutically acceptable carrier. Before testing, the solids were passed through 80-mesh screen corresponding to 177 micrometer opening in order to fragment some very large loose aggregates of the orderly packed agglomerates. The properties tested included powder flow characteristics, powder particle size distribution, powder bulk and tapped density and powder compressibility and compaction.
Particle size distribution of the powder was measured using sieve analysis. The mean particle size distribution was calculated using the geometric mean method. […] Only 1.63% of material was considered as fines, less than 75-μm, with more than 90% within 105-250-μm. More than 75% of the material was within 105-150-μm. The tight range in the powder particle size distribution for orderly packed agglomerates is between 100 and 200-μm, which is highly desirable for the development of a pharmaceutical composition with S-[2-[(1-Iminoethyl)amino]ethyl]-2-methyl-L-cysteine maleate hydrochloride together with a pharmaceutically acceptable carrier.

[4] = Powder flow, aperture flow tester; type: physicochemical
Description: as §1, with “compaction. Powder flow was evaluated using an aperture flow tester, measured as the smallest opening at which the powder freely flows through. The powder flow test was repeatedly successful through a 6-mm aperture opening. A powder flow of 6-mm is considered good for formulation development of S-[2-[(1-Iminoethyl)amino]ethyl]-2-methyl-L-cysteine maleate hydrochloride crystals. Successful repetition of flow through a narrower 4-mm opening was, however, dependent on how the powder was introduced to the tester.” for “compaction.”

[5] = type: physicochemical
Description: Additionally, the presence of excess maleic acid dramatically increases the solubility.
1-Butanol was selected as the best solvent to explore the possibility of utilizing a high boiling solvent that can easily be exchanged with water from the upstream aqueous chromatography purification step. […] This process was again designed to be very similar to the DMF/acetonitrile process. Following is a description of the initial process run at the 1 L scale.

physchem = type: physicochemical
Description: S-[2-[(1-Iminoethyl)amino]ethyl]-2-methyl-L-cysteine maleate hydrochloride crystals are birefringent with positive elongation when analyzed by polarized light microscopy.
Examples 7 and 8 only differ in the nature of agitation afforded to the system. […] The bead was agitated with a magnetic plate. […] Both the examples used 2.0 molar equivalents of maleic acid and 0.5 molar equivalent of HCl for each mole of S-[2-[(1-Iminoethyl)amino]ethyl]-2-methyl-L-cysteine. […] In Example 9, the water content of the system was 2.3% before the addition of acetonitrile, while the ratio of acetonitrile to DMF was 1.98 on weight/weight basis.

[6] = Bulk and tapped powder density; type: physicochemical; conditions: orderly packed agglomerates of Example 20
Description: as §1
Bulk powder density was evaluated as the mass of material within a 50-ml graduated cylinder.

[7] = orderly packed agglomerates of Example 20

Structure (SMILES): CC(=N)NCCSC[C@](C)(N)C(=O)O.Cl.O=C(O)/C=C\C(=O)O [S-[2-[(1-Iminoethyl)amino]ethyl]-2-methyl-L-cysteine maleate hydrochloride]
- tablet hardness ([1]; 8/32 inch, compression force between 900 and 1000 kg): ≤ 11 kP
- tablet hardness ([1]; compression forces between 500 and 600): 8 kP
- tablet disintegration time ([1]; three tablets, compression forces between 500 and 600, 8 kP hardness): less than 2 minutes
- moisture uptake ([2]; between 0 and 70% relative humidity): approximately 1.5%
- further moisture taken up by the solids ([2]; between 70 and 9% R.H. as printed): 58%
- fraction of fines, less than 75-μm [3, 7]: 1.63%
- fraction of material within 105-150-μm [3, 7]: More than 75%
- fraction of material within 105-250-μm [3, 7]: more than 90%
- mean particle size ([3]; orderly packed agglomerates of Example 20, geometric mean method): 134 micrometers
- compressibility index [4, 7]: 17.8%
- powder flow, smallest aperture opening at which the powder freely flows through ([4]; orderly packed agglomerates of Example 20, passed through 80-mesh screen): 6 mm
- solubility in 1-butanol [5]: 0.05 wt %
- solubility in methanol [5]: 6.2 wt %
- solubility in water (in words) (physchem): highly soluble in water
- solubility (physchem; water): > 150 mg/mL
- bulk powder density [6]: 0.41 g/mL
- tapped density [6]: 0.50 g/mL

Structure (SMILES): CC(=N)NCCSC[C@](C)(N)C(=O)O [S-[2-[(1-Iminoethyl)amino]ethyl]-2-methyl-L-cysteine]
- solubility in water (in words) (physchem): highly soluble in water
